Results published in US20250145633A1, “SUBSTITUTED FURANOPYRIMIDINE COMPOUNDS AS PDE1 INHIBITORS” (Dart NeuroScience, LLC, priority 2017, published 2025).

Biological target: human PDE1B enzyme (Homo sapiens (Human), UniProt Q01064)
Assay: IMAP TR-FRET PDE1B enzymatic assay
Assay type: biochemical
Settings: negative log of half-maximal molar inhibitory concentration, 200 nM FAM-cAMP, values given as bins; for IC50: read-out: PDE1b (pIC50) (converted)
Outline: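 Full-length GST-tagged human PDE1B (250 pg/well) in IMAP BSA buffer with 10 U/ml calmodulin and 2.5 mM CaCl2; compound pre-incubated 5 min at room temperature, then 200 nM (final) FAM-cAMP for 30 min. IMAP binding reagent/Tb added, 1 h; TR-FRET 520/490 ratio read. IC50 from sigmoidal dose-response fit.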

Row | SMILES | IC50 [µM] | PDE1b (pIC50)
1 | Cc1oc2ncnc(NC3(C)CC3)c2c1C(=O)NCCCc1nc2cc(F)ccc2[nH]1 [Example 568, N-[3-(5-Fluoro-1H-1,3-benzodiazol-2-yl)propyl]-6-methyl-4-[(1-methylcyclopropyl)amino]furo[2,3-d]pyrimidine-5-carboxamide] | 0.01 to 0.1 | –
2 | Cc1oc2ncnc(NC3(C)CC3)c2c1C(=O)N(C)Cc1cc2cc(F)ccc2[nH]1 [Example 569, N-[(5-Fluoro-1H-indol-2-yl)methyl]-N,6-dimethyl-4-[(1-methylcyclopropyl)amino]furo[2,3-d]pyrimidine-5-carboxamide] | 0.01 to 0.1 | –
3 | COc1ccc2[nH]c(CNC(=O)c3c(C)oc4ncnc(NC5(C)CC5)c34)cc2c1 [Example 570, N-[(5-Methoxy-1H-indol-2-yl)methyl]-6-methyl-4-[(1-methylcyclopropyl)amino]furo[2,3-d]pyrimidine-5-carboxamide] | 0.01 to 0.1 | –
4 | Cc1oc2ncnc(NC3(C)CC3)c2c1C(=O)NCc1cnn(-c2ccc(F)cc2)c1 [Example 571, N-{[1-(4-Fluorophenyl)-1H-pyrazol-4-yl]methyl}-6-methyl-4-[(1-methylcyclopropyl)amino]furo[2,3-d]pyrimidine-5-carboxamide] | 0.01 to 0.1 | –
5 | Cc1oc2ncnc(NC3(C)CC3)c2c1C(=O)NCc1cnn(-c2cccc(F)c2)c1 [Example 572, N-{[1-(3-Fluorophenyl)-1H-pyrazol-4-yl]methyl}-6-methyl-4-[(1-methylcyclopropyl)amino]furo[2,3-d]pyrimidine-5-carboxamide] | – | >8
6 | COc1ccc(CN(CCCO)C(=O)c2c(C)oc3ncnc(NC4(C)CC4)c23)cc1 [Example 573, N-(3-Hydroxypropyl)-N-[(4-methoxyphenyl)methyl]-6-methyl-4-[(1-methylcyclopropyl)amino]furo[2,3-d]pyrimidine-5-carboxamide] | 0.01 to 0.1 | –
7 | Cc1oc2ncnc(NC3(C)CC3)c2c1C(=O)N(CCCO)Cc1ccc(F)cc1 [Example 574, N-[(4-Fluorophenyl)methyl]-N-(3-hydroxypropyl)-6-methyl-4-[(1-methylcyclopropyl)amino]furo[2,3-d]pyrimidine-5-carboxamide] | – | >8
8 | Cc1oc2ncnc(NC3(C)CC3)c2c1C(=O)N(C)Cc1nc2ccc(F)cc2[nH]1 [Example 575, N-[(6-Fluoro-1H-1,3-benzodiazol-2-yl)methyl]-N,6-dimethyl-4-[(1-methylcyclopropyl)amino]furo[2,3-d]pyrimidine-5-carboxamide] | 0.1 to 1 | –
9 | COCCN(Cc1cccc(OC)c1)C(=O)c1c(C)oc2ncnc(NC3(C)CC3)c12 [Example 580, N-(2-Methoxyethyl)-N-[(3-methoxyphenyl)methyl]-6-methyl-4-[(1-methylcyclopropyl)amino]furo[2,3-d]pyrimidine-5-carboxamide] | 0.01 to 0.1 | –
10 | Cc1oc2ncnc(NC3(C)CC3)c2c1C(=O)N(C)CCc1nc2cc(F)ccc2[nH]1 [Example 583, N-[2-(5-Fluoro-1H-1,3-benzodiazol-2-yl)ethyl]-N,6-dimethyl-4-[(1-methylcyclopropyl)amino]furo[2,3-d]pyrimidine-5-carboxamide] | 0.1 to 1 | –
11 | Cc1oc2ncnc(NC3(C)CC3)c2c1C(=O)NCc1cc2ccc(F)cc2[nH]c1=O [Example 584, N-[(7-Fluoro-2-oxo-1,2-dihydroquinolin-3-yl)methyl]-6-methyl-4-[(1-methylcyclopropyl)amino]furo[2,3-d]pyrimidine-5-carboxamide] | 0.01 to 0.1 | –
12 | Cc1oc2ncnc(NC3(C)CC3)c2c1C(=O)NCCOc1ccc(F)cc1 [Example 585, N-[2-(4-Fluorophenoxy)ethyl]-6-methyl-4-[(1-methylcyclopropyl)amino]furo[2,3-d]pyrimidine-5-carboxamide] | – | >8
13 | COc1ccccc1OC1CN(C(=O)c2c(C)oc3ncnc(NC4(C)CC4)c23)C1 [Example 589, 5-[3-(2-Methoxyphenoxy)azetidine-1-carbonyl]-6-methyl-N-(1-methylcyclopropyl)furo[2,3-d]pyrimidin-4-amine] | 0.01 to 0.1 | –
14 | COc1cccc(OC2CN(C(=O)c3c(C)oc4ncnc(NC5(C)CC5)c34)C2)c1 [Example 590, 5-[3-(3-Methoxyphenoxy)azetidine-1-carbonyl]-6-methyl-N-(1-methylcyclopropyl)furo[2,3-d]pyrimidin-4-amine] | < 0.01 | –
15 | CCOc1ccc(C(C)NC(=O)c2c(C)oc3ncnc(NC4(C)CC4)c23)cc1F (stereo not drawn) [Example 595, N-[1-(4-Ethoxy-3-fluorophenyl)ethyl]-6-methyl-4-[(1-methylcyclopropyl)amino]furo[2,3-d]pyrimidine-5-carboxamide] | 0.01 to 0.1 | –
16 | COc1cccc2c1OCCCN(C(=O)c1c(C)oc3ncnc(NC4(C)CC4)c13)C2 [Example 600] | 0.01 to 0.1 | –
17 | COc1ccc(CN(C)C(=O)c2c(C)oc3ncnc(NC4(C)CC4)c23)cc1O [Example 604, N-[(3-Hydroxy-4-methoxyphenyl)methyl]-N,6-dimethyl-4-[(1-methylcyclopropyl)amino]furo[2,3-d]pyrimidine-5-carboxamide] | 0.01 to 0.1 | –

Row | SMILES | IC50 [µM] | PDE1b (pIC50)
18 | C#CCN(Cc1ccc(OC)cc1)C(=O)c1c(C)oc2ncnc(NC3(C)CC3)c12 [Example 606, N-[(4-Methoxyphenyl)methyl]-6-methyl-4-[(1-methylcyclopropyl)amino}-N-(prop-2-yn-1-yl)furo[2,3-d]pyrimidine-5-carboxamide] | 0.01 to 0.1 | –
19 | COc1ccccc1C(C)NC(=O)c1c(C)oc2ncnc(NC3(C)CC3)c12 (stereo not drawn) [Example 613, N-[1-(2-Methoxyphenyl)ethyl]-6-methyl-4-[(1-methylcyclopropyl)amino]furo[2,3-d]pyrimidine-5-carboxamide] | 0.01 to 0.1 | –
20 | Cc1oc2ncnc(NC3(C)CC3)c2c1C(=O)NCc1cc([N+](=O)[O-])ccc1F [Example 614, N-[(2-Fluoro-5-nitrophenyl)methyl]-6-methyl-4-[(1-methylcyclopropyl)amino]furo[2,3-d]pyrimidine-5-carboxamide] | < 0.01 | –
21 | COc1ccc(CCNC(=O)c2c(C)oc3ncnc(NC4(C)CC4)c23)cc1 [Example 619, N-[2-(4-Methoxyphenyl)ethyl]-6-methyl-4-[(1-methylcyclopropyl)amino]furo[2,3-d]pyrimidine-5-carboxamide] | 0.01 to 0.1 | –
22 | Cc1oc2ncnc(NC3(C)CC3)c2c1C(=O)Nc1cnn(-c2cccnc2)c1 [Example 620, 6-Methyl-4-[(1-methylcyclopropyl)amino]-N-[1-(pyridin-3-yl)-1H-pyrazol-4-yl]furo[2,3-d]pyrimidine-5-carboxamide] | 0.01 to 0.1 | –
23 | Cc1oc2ncnc(NC3(C)CC3)c2c1C(=O)Nc1cnn(-c2ccncc2)c1 [Example 621, 6-Methyl-4-[(1-methylcyclopropyl)amino]-N-[1-(pyridin-4-yl)-1H-pyrazol-4-yl]furo[2,3-d]pyrimidine-5-carboxamide] | 0.01 to 0.1 | –
24 | COc1ncnc2c1CN(C(=O)c1c(C)oc3ncnc(NC4(C)CC4)c13)C2 [Example 622, 5-{4-Methoxy-5H,6H,7H-pyrrolo[3,4-d]pyrimidine-6-carbonyl}-6-methyl-N-(1-methylcyclopropyl)furo[2,3-d]pyrimidin-4-amine] | 0.1 to 1 | –
25 | Cc1oc2ncnc(NC3(C)CC3)c2c1C(=O)N1CCn2cc(C(F)(F)F)nc2C1 [Example 623, 6-Methyl-N-(1-methylcyclopropyl)-5-[2-(trifluoromethyl)-5H,6H,7H,8H-imidazo[1,2-a]pyrazine-7-carbonyl]furo[2,3-d]pyrimidin-4-amine] | 0.01 to 0.1 | –
26 | Cc1oc2ncnc(NC3(C)CC3)c2c1C(=O)N1CCn2c(Br)cnc2C1 [Example 624, 5-{3-Bromo-5H,6H,7H,8H-imidazo[1,2-a]pyrazine-7-carbonyl}-6-methyl-N-(1-methylcyclopropyl)furo[2,3-d]pyrimidin-4-amine] | 0.01 to 0.1 | –
27 | Cc1nccc(CNC(=O)c2c(C)oc3ncnc(NC4(C)CC4)c23)n1 [Example 625, 6-Methyl-4-[(1-methylcyclopropyl)amino]-N-[(2-methylpyrimidin-4-yl)methyl]furo[2,3-d]pyrimidine-5-carboxamide] | 0.01 to 0.1 | –
28 | Cc1oc2ncnc(NC3(C)CC3)c2c1C(=O)NCc1noc(C(F)(F)Cl)n1 [Example 626, N-{[5-(Chlorodifluoromethyl)-1,2,4-oxadiazol-3-yl]methyl}-6-methyl-4-[(1-methylcyclopropyl)amino]furo[2,3-d]pyrimidine-5-carboxamide] | 0.01 to 0.1 | –
29 | Cc1noc(CNC(=O)c2c(C)oc3ncnc(NC4(C)CC4)c23)n1 [Example 627, 6-Methyl-N-[(3-methyl-1 2 4-oxadiazol-5-yl)methyl]-4-[(1-methylcyclopropyl)amino]furo[2,3-d]pyrimidine-5-carboxamide] | 0.01 to 0.1 | –
30 | Cc1oc2ncnc(NC3(C)CC3)c2c1C(=O)N1CCc2c(ncnc2C(C)C)C1 [Example 628, 6-Methyl-N-(1-methylcyclopropyl)-5-[4-(propan-2-yl)-5H,6H,7H,8H-pyrido[3,4-d]pyrimidine-7-carbonyl]furo[2,3-d]pyrimidin-4-amine] | 0.01 to 0.1 | –
31 | COc1ncnc2c1CCN(C(=O)c1c(C)oc3ncnc(NC4(C)CC4)c13)CC2 [Example 629, 5-{4-Methoxy-5H,6H,7H,8H,9H-pyrimido[4,5-d]azepine-7-carbonyl}-6-methyl-N-(1-methylcyclopropyl)furo[2,3-d]pyrimidin-4-amine] | 0.1 to 1 | –
32 | Cc1oc2ncnc(NC3(C)CC3)c2c1C(=O)N1CCc2cccnc2C1 [Example 630, 6-Methyl-N-(1-methylcyclopropyl)-5-(5,6,7,8-tetrahydro-1,7-naphthyridine-7-carbonyl)furo[2,3-d]pyrimidin-4-amine] | 0.01 to 0.1 | –
33 | Cc1oc2ncnc(NC3(C)CC3)c2c1C(=O)N1CCc2ncccc2C1 [Example 631, 6-Methyl-N-(1-methylcyclopropyl)-5-(5,6,7,8-tetrahydro-1,6-naphthyridine-6-carbonyl)furo[2,3-d]pyrimidin-4-amine] | 0.1 to 1 | –
